Laboratory results reported in patent publication US20230090391A1, “OMECAMTIV MECARBIL TABLET” (Amgen Inc., priority 2020, published 2023).
Structures can show the parent of a compound that is named as a salt.

Legend:
[1] = Phase 1 crossover study: safety and tolerability of single oral doses of OM; assay type: in vivo, healthy adult subjects; details: all 5 treatments
Procedure: The secondary objective of the study was to evaluate the safety and tolerability of a single 6 mg dose (administered as mini-tablets) or 25 mg dose (administered as a MR tablet or mini-tablets) of OM administered to healthy adult subjects.
The study was a Phase 1, single-center, open-label, randomized, 5-period, 4-sequence crossover study to investigate the pharmacokinetics, safety, and tolerability of the disclosed tablet formulations and a conventional MR tablet formulation of OM in healthy male and healthy female adult subjects. Subjects were screened to assess eligibility to enter the study within 21 days prior to the first dose administration. Subjects were admitted into the clinical research unit on Day 1 and confined to the clinical research unit for Periods 1 through 5 until discharged at end of study. Following randomization into 1 of 4 treatment sequences, subjects received 1 of the 5 treatments on Day 1 of each treatment period with all subjects receiving all 5 treatments. Blood was collected at predetermined timepoints to characterize plasma concentrations of OM. Safety and tolerability monitoring was performed throughout the study.
Up to twenty subjects (5 per sequence) were enrolled in the study. Data for all 20 subjects entered into the study were included in the PK and safety analyses. Healthy male or female subjects were selected according to inclusion and exclusion criteria. The subjects were assigned to one of the five following Treatment Groups (A-E): • Treatment Group A: 25 mg (1×25 mg) OM MR tablet; • Treatment Group B: 25 mg (25×1 mg) OM slow-release mini-tablets; • Treatment Group C: 25 mg (25×1 mg) OM fast-release mini-tablets; • Treatment Group D: 6 mg (6×1 mg) OM slow-release mini-tablets; and • Treatment Group E: 6 mg (6×1 mg) OM fast-release mini-tablets.
The safety analysis included monitoring adverse events, clinical laboratory evaluations, 12 lead electrocardiograms (ECGs), and vital signs during the study.
All safety data were listed. The treatment-emergent adverse events were summarized by treatment, severity, and relationship to the study drug. The frequency of treatment emergent adverse events was summarized by treatment, system organ class and preferred term of the Medical Dictionary for Regulatory Activities. No inferential statistical analyses were planned.

[2] = 19F solid state NMR of granulation and IR mini-tablet cores (physical form); assay type: physicochemical; details: 19F SSNMR of IR granulation and IR mini-tablet cores
Description: Cores 1A-1C, as well as the corresponding granulates, were subjected to analytical characterizations. The results are depicted in FIGS. 3 and 4.
FIGS. 3 and 4 depict the ^19F solid state NMR (SSNMR) spectra of the immediate-release granulation and immediate-release mini-tablet cores.

SMILES	Clinical laboratory evaluations, vital signs, 12-lead ECGs ([1]; 20 subjects)	Number of subjects reporting treatment-emergent adverse events considered related to OM ([1]; 20 subjects)	Serious adverse events ([1]; 20 subjects)	Treatment-emergent adverse events leading to discontinuation ([1]; 20 subjects)	Severity of adverse events ([1]; 20 subjects, resolved by the end of the study)	Number of treatment-emergent adverse events considered related to OM ([1]; myalgia, dizziness, costochondritis, muscle twitching, non-cardiac chest pain)	Stability and physical form during manufacturing [2]
COC(=O)N1CCN(Cc2cccc(NC(=O)Nc3ccc(C)nc3)c2F)CC1 [OM, Omecamtiv mecarbil]	no clinically significant findings	7 subjects	no serious adverse events	no treatment-emergent adverse events led to premature discontinuation	mild	Eight	
COC(=O)N1CCN(Cc2cccc(NC(=O)Nc3ccc(C)nc3)c2F)CC1 [omecamtiv mecarbil dihydrochloride monohydrate]							stable during manufacturing and exhibits no change in physical form
